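A five-concentration, 48-hour dose response in 96-well plates underlies each endpoint, interpolated linearly between surrounding concentrations. GI50: concentration for 50% inhibition of growth. The concentration for full growth arrest is given as TGI.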
Experiments:
Assay in all cases: DTP human tumour cell line panel, 48 h
TK-10 renal = system: TK-10 renal
DU-145 prostate = system: DU-145 prostate
SF-539 CNS = system: SF-539 CNS
UACC-62 melanoma = system: UACC-62 melanoma
SK-OV-3 ovarian = system: SK-OV-3 ovarian
HS 578T breast = system: HS 578T breast
NCI-H460 lung = system: NCI-H460 lung
A549 NSCLC = system: A549 NSCLC
HCT-116 colon = system: HCT-116 colon
LOX IMVI melanoma = system: LOX IMVI melanoma
NCI/ADR-RES ovarian = system: NCI/ADR-RES ovarian
BT-549 breast = system: BT-549 breast
NCI-H23 lung = system: NCI-H23 lung
UACC-257 melanoma = system: UACC-257 melanoma
KM12 colon = system: KM12 colon
ACHN renal = system: ACHN renal
HCT-15 colon = system: HCT-15 colon
CAKI-1 renal = system: CAKI-1 renal
EKVX NSCLC = system: EKVX NSCLC
SNB-19 CNS = system: SNB-19 CNS
RPMI-8226 leukemia = system: RPMI-8226 leukemia
HOP-92 NSCLC = system: HOP-92 NSCLC
MCF7 breast = system: MCF7 breast
MDA-MB-231 breast = system: MDA-MB-231 breast
MALME-3M melanoma = system: MALME-3M melanoma
SK-MEL-28 melanoma = system: SK-MEL-28 melanoma

`CCCCCCCCc1cc[n+](CC(=O)c2ccc(Br)cc2)cc1` gave a GI50 (TK-10 renal) of 1400 nM, a TGI (TK-10 renal) of 2700 nM and a GI50 (DU-145 prostate) of 1510 nM. It also gave a TGI (DU-145 prostate) of 2860 nM, a GI50 (SF-539 CNS) of 1610 nM and a TGI (SF-539 CNS) of 2960 nM. The GI50 (UACC-62 melanoma) was 1440 nM, the TGI (UACC-62 melanoma) was 2760 nM and the GI50 (SK-OV-3 ovarian) was 1530 nM. For the same compound, the TGI (SK-OV-3 ovarian) was 2950 nM, the GI50 (HS 578T breast) was 1860 nM and the TGI (HS 578T breast) was 3750 nM. The GI50 (NCI-H460 lung) was 1650 nM, the TGI (NCI-H460 lung) was 3070 nM and the GI50 (A549 NSCLC) was 1770 nM. For the same compound, the TGI (A549 NSCLC) was 3250 nM, the GI50 (HCT-116 colon) was 1190 nM and the TGI (HCT-116 colon) was 2490 nM. It also gave a GI50 (LOX IMVI melanoma) of 1570 nM, a TGI (LOX IMVI melanoma) of 2910 nM and a GI50 (NCI/ADR-RES ovarian) of 8770 nM. For the same compound, the TGI (NCI/ADR-RES ovarian) was 21900 nM, the GI50 (BT-549 breast) was 2440 nM and the TGI (BT-549 breast) was 5520 nM. For the same compound, the GI50 (NCI-H23 lung) was 1480 nM, the TGI (NCI-H23 lung) was 2990 nM and the GI50 (UACC-257 melanoma) was 1640 nM. For the same compound, the TGI (UACC-257 melanoma) was 3110 nM, the GI50 (KM12 colon) was 1490 nM and the TGI (KM12 colon) was 2810 nM. It also gave a GI50 (ACHN renal) of 1640 nM, a TGI (ACHN renal) of 2990 nM and a GI50 (HCT-15 colon) of 1640 nM. It also gave a TGI (HCT-15 colon) of 3200 nM, a GI50 (CAKI-1 renal) of 1370 nM and a TGI (CAKI-1 renal) of 2840 nM. The GI50 (EKVX NSCLC) was 1380 nM, the TGI (EKVX NSCLC) was 2800 nM and the GI50 (SNB-19 CNS) was 1590 nM. For the same compound, the TGI (SNB-19 CNS) was 3310 nM, the GI50 (RPMI-8226 leukemia) was 1770 nM and the TGI (RPMI-8226 leukemia) was 3790 nM. It also gave a GI50 (HOP-92 NSCLC) of 1470 nM, a TGI (HOP-92 NSCLC) of 4100 nM and a GI50 (MCF7 breast) of 1520 nM. It also gave a TGI (MCF7 breast) of 2840 nM, a GI50 (MDA-MB-231 breast) of 1450 nM and a TGI (MDA-MB-231 breast) of 2850 nM. The GI50 (MALME-3M melanoma) was 1690 nM, the TGI (MALME-3M melanoma) was 3500 nM and the GI50 (SK-MEL-28 melanoma) was 1640 nM. It also gave a TGI (SK-MEL-28 melanoma) of 3040 nM.
